From US20120010177A1, “MicroRNA Modulators and Method for Identifying And Using The Same” (The Wistar Institute / North Carolina State University, priority 2008, published 2012)
Where two headings read alike, the source gives them in different places.

Key:
miR-21 = miR-21 luciferase reporter (Luc-miR-21) screening assay in HeLa cells; assay type: cell-based, human; conditions: HeLa Luc-miR-21 reporter; for increase of the luciferase signal: 48 hours, compared to untreated cells
Text: (§1) MicroRNA miR-21 was selected as a target miRNA due to its involvement as an anti-apoptotic factor in cancer cells and its elevated levels in various cancers such as breast, ovarian, and lung cancer as well as glioblastoma (Chan, et al. (2005) Cancer Res. 65:6029). Lentiviral reporter constructs for miRNA activity were assembled by introducing the complementary sequences of mature miR-21 (5′-UAGCUUAUCAGACUGAUGUUGA-3′; SEQ ID NO:13), miR-30A (5′-CUUUCAGUCGGAUGUUUGCAGC-3′; SEQ ID NO:14) as a specificity control, and a linker sequence (a previously present multiple-cloning site with no detectable recognition by natural miRNAs) downstream of a luciferase reporter gene as a negative control (FIG. 1).
(§2) Luc-miR-21, Luc-miR-30A, and Luc-linker (control) were, by viral infection, introduced into HeLa cells, which express high levels of miR-21, but only low levels of miR-30A (Cheng, et al. (2005) Nucl. Acids Res. 33:1290).
To illustrate the method of the present invention, a primary screen of >1000 compounds was conducted. The library was composed of a collection of novel compounds and the Library of Pharmacologically Active Compounds (LOPAC library, Sigma-Aldrich, St Louis, Mo.). All compounds were stored at a 10 mM concentration in DMSO to keep the DMSO concentration in the actual screen at 0.1% thereby minimizing toxicity. HeLa cells stably expressing the miR-reporter were treated with DMSO ranging from 0.1-1%. Luciferase signals were determined 48 hours after the treatment.
HeLa cells (2500 cells) were plated in each well of 384-well plate 24 hour before the addition of compounds. Compounds at 10 μM final concentration were added to each well. Luciferase signal were determined 48 hours after compound treatment. Using this screening assay, compound 1 was identified as a miR-21 antagonist.

[1] = test system: HCT116 colon cancer cells; experiment: Cell proliferation of HCT116 cells, drug combinations; assay type: cell-based, human
Text: The % activity indicates % live cell activity.

mature miR-93 = experiment: Quantitative RT-PCR of mature miR-93; assay type: cell-based, human
Text: (§3) UNG (Applied Biosystems). […] (Sigma).

mature miR-30 = experiment: Quantitative RT-PCR of mature miR-30; assay type: cell-based, human
Text: as §3

Luc-Linker control = experiment: Luc-linker control luciferase reporter in HeLa cells; assay type: cell-based, human; conditions: 10 μM, relative to DMSO control
Text: as §1, §2
(§4) It was subsequently determined whether Compound 2 was a specific inhibitor of miR-21 or whether it could interfere with the general miRNA biogenesis pathway. Thus, HeLa cells stably expressing both the miR-30 luciferase reporter construct and miR-30 were treated with Compound 2.

miR-30 = miR-30 luciferase reporter in HeLa cells stably expressing miR-30; assay type: cell-based, human; conditions: HeLa cells stably expressing miR-30 reporter and miR-30, 10 μM
Text: as §1
The specificity of the reporter system was tested by assaying cells which contained both the Luc-miR-30A reporter and a construct expressing exogenous miR-30.
as §4

[2] = test system: A172 cells (glioblastoma cells); experiment: Cell viability assay, A172 cells, alone or with antiproliferative agent; assay type: cell-based; conditions: Homo sapiens, A 172
Text: (§5) In these assays, A172 cells (glioblastoma cells) were contacted with a miR-21 inhibitor either alone or in combination with a conventional antiproliferative agent (i.e., 5-fluorouracil or curcumin). At the concentrations indicated, no toxic effects on HEK293T (human embryonic kidney) cells were observed.

[3] = test system: HEK293T (human embryonic kidney) cells; experiment: Cell viability assay, HEK293T cells; assay type: cell-based; conditions: 10 μM Compound
Text: as §5

[4] = test system: primary miR-21 (pri-miR-21); experiment: Quantitative RT-PCR of primary miR-21; assay type: cell-based, human
Text: as §3

mature miR-21 = experiment: Quantitative RT-PCR of mature miR-21; assay type: cell-based, human
Text: as §3

[5] = HeLa cells, 10 μM, relative to DMSO
[6] = MDA-MB-231, MCF-7 and A172 cell lines

## Nc1ccc(/N=N/c2ccc([N+](=O)[O-])cc2)cc1 [Compound 1]
miR-21; 10 μM
  increase of the luciferase signal: 251%

## C#CCNC(=O)c1ccc(/N=N/c2ccccc2)cc1 [Compound 2, (E)-4-(Phenyldiazenyl)-N-(prop-2-ynyl)benzamide]
miR-21; 10 μM
  fold increase of the luciferase signal: 5 fold
  increase of the luciferase signal: 485%
miR-21; Homo sapiens, concentration dependent, read-out: EC50 of increase of luciferase signal
  EC50: 2000 nM
[1]; FIG. 5A
  proliferation of HCT116 colon cancer cells, combination with 5-FU: synergistically decrease
[1]; FIG. 5B
  proliferation of HCT116 colon cancer cells, combination with Curcumin: synergistically decrease
Mature miR-93; [5]
  level of endogenous mature miR-93: not reduced
Mature miR-93; [6]
  mature miR-93 level: no effect
Mature miR-93; Table 2
  mature miR-93 level, % of DMSO control: 115%
Mature miR-30; [5]
  level of exogenous mature miR-30: not reduced
Mature miR-30; [6]
  mature miR-30 level: no effect
Mature miR-30; Table 2
  mature miR-30 level (% of DMSO control): 110%
Luc-Linker control
  luciferase signal in HeLa cells expressing the Luc-Linker control: did not affect the luciferase signal
miR-30
  luciferase signal of miR-30 luciferase reporter: no increase of the luciferase signal was detected
[2]; 10 μM Compound + 5FU 0.5 μM, read-out: Cell Viability A172 Cells, Compound + 5FU (0.5 μM)
  viability at 10 µM: 8%
[2]; 10 μM Compound + Curcumin 10 μM, read-out: Cell Viability A172 Cells, Compound + Curcumin (10 μM)
  viability at 10 µM: 12%
[2]; 10 μM Compound alone, read-out: Cell Viability A172 Cells, Compound
  viability at 10 µM: 84%
[3]
  Cell Viability HEK293T Cells: 98%
[4]; HeLa cells, 10 μM, compared to DMSO control
  reduction of primary miR-21 (pri-miR-21) level: 87%
[4]; [6]
  primary miR-21 level: suppressed
Mature miR-21; [6]
  mature miR-21 level: suppressed
Mature miR-21; Table 2
  miR-21 RT PCR* (% Decrease as compared to DMSO control): 22%
